Laboratory results: paper PMC7601695, “Transcriptome Analysis of Psacothea hilaris: De Novo Assembly and Antimicrobial Peptide Prediction” (Insects, 2020)

What was measured:
Type in all cases: cell-based
[1] = test system: Escherichia coli (KACC 13821, ATCC 11775); test: Radial diffusion assay, E. coli; conditions: for Diameter of clearing zone, E. coli: peptide 200 μg/mL, 5 μL per 3-mm well, 3 h diffusion then 12 h at 37 °C, mean of tests repeated three times; for Antimicrobial activity compared with melittin, E. coli: in words
Procedure: (§1) The bacterial strains Escherichia coli (KACC 13821, ATCC 11775) and Staphylococcus aureus (KACC 10768, ATCC 25923), and the yeast strain Candida albicans (KCTC 7121, ATCC 14053) were purchased from the Korean Agricultural Culture Collection (KACC) and Korean Collection for Type Cultures (KCTC). Both bacteria and yeast were grown overnight in tryptic soy broth (TSB; Difco, Thermo Fisher Scientific, Waltham, MA, USA) at 37 °C, 200 rpm to the stationary phase. Bacteria were re-inoculated in fresh TSB medium and cultivated for 3 h to the log phase. The strains were stored with 15% glycerol at −70 °C.
(§2) The radial diffusion assay was performed to test the antimicrobial activities of peptides, as described previously with slight modifications. In brief, bacteria and yeast strains were grown to the mid-logarithmic phase in TSB at 37 °C and then washed twice with 10 mM sodium phosphate buffer (pH 7.4). A total of 4 × 10^6 colony forming unit (CFU) was added to 10 mL of an underlay agarose gel (9 mM sodium phosphate, 1 mM sodium citrate, pH 7.4, 1% (w/v) Type I (low electroendosmosis) agarose (Sigma, St. Louis, MO, USA), and 3% TSB (Difco, USA)). The underlay gel was poured into a 100-mm INTEGRIDTM Petri dish. After agarose solidification, 3-mm-diameter wells were punched and 5 μL of each peptide solution was added to each well. Buffer alone was used as a negative control. Plates were incubated at 37 °C for 3 h to allow for diffusion of the peptides. The underlay gel was then covered with 10 mL of nutrient-rich agar overlay (6% TSB and 1% agarose). The antimicrobial activity of a peptide was measured as the diameter of the cleared zone around each well after 12 h of incubation at 37 °C. This experiment was repeated at least 3 times.

[2] = test system: Candida albicans (KCTC 7121, ATCC 14053); test: Radial diffusion assay, C. albicans; conditions: for Diameter of clearing zone, C. albicans: peptide 200 μg/mL, 5 μL per 3-mm well, 3 h diffusion then 12 h at 37 °C, mean of tests repeated three times; for Antimicrobial activity compared with melittin, C. albicans: in words
Procedure: as §1, §2

[3] = test system: Staphylococcus aureus (KACC 10768, ATCC 25923); test: Radial diffusion assay, S. aureus; conditions: peptide 200 μg/mL, 5 μL per 3-mm well, 3 h diffusion then 12 h at 37 °C, mean of tests repeated three times
Procedure: as §1, §2

mouse erythrocytes = test: Hemolytic assay; conditions: 12.5 μg/mL; 2.5% (v/v) mouse erythrocytes in PBS; 30 min, 37 °C; A540
Procedure: This experiment was approved by the Institutional Animal Care and Use Committee (IACUC) of the National Institute of Agricultural Sciences (approval number: NAS-202014). The hemolytic activity of the peptides was determined by monitoring the release of hemoglobin from mouse erythrocytes at 540 nm. For the hemolytic assay, 20 μL of each peptide solution at a predetermined concentration was added to 180 μL of a 2.5% (v/v) suspension of mouse erythrocytes in phosphate-buffered saline (PBS). Melittin (Sigma), a hemolytic and α-helical peptide isolated from bee venom, were used as the positive control. This mixture was incubated for 30 min at 37 °C, and 600 μL of PBS was then added to each tube. After 3 min of centrifugation at 10,000× g, the supernatant was […], and the absorbance was measured at 540 nm. Evaluations were made from the results of at least three independent experiments, each carried out in triplicate.
Figure 4 Cytotoxic effects of 13 selected peptides. Hemolytic activity of the peptides. Peptide concentration (x-axis) is plotted against the percentage of hemolysis (y-axis) of mouse red blood cells after incubation for 30 min. Melittin was used as the positive control. The percent hemolysis was calculated with the following equation: hemolysis (%) = (A540 of samp—A540 of peptide-free control)/(A540 of 100% control—A540 of peptide-free control) × 100. […]

Compound	Diameter of clearing zone, E. coli [1]	Diameter of clearing zone, C. albicans [2]	Diameter of clearing zone, S. aureus [3]	Hemolysis of mouse red blood cells (mouse erythrocytes)	Antimicrobial activity compared with melittin, E. coli [1]	Antimicrobial activity compared with melittin, C. albicans [2]
CC[C@H](C)[C@H](NC(=O)CN)C(=O)NCC(=O)N[C@@H](C)C(=O)N[C@H](C(=O)N[C@@H](CC(C)C)C(=O)N[C@@H](CCCCN)C(=O)N[C@H](C(=O)N[C@@H](CC(C)C)C(=O)N[C@H](C(=O)N[C@H](C(=O)NCC(=O)N[C@@H](CC(C)C)C(=O)N1CCC[C@H]1C(=O)N[C@@H](C)C(=O)N[C@@H](CC(C)C)C(=O)N[C@H](C(=O)N[C@@H](CO)C(=O)N[C@@H](Cc1c[nH]c2ccccc12)C(=O)N[C@H](C(=O)N[C@@H](CCCCN)C(=O)N[C@@H](CCCNC(=N)N)C(=O)N[C@@H](CCCCN)C(=O)N[C@@H](CCCNC(=N)N)C(=O)N[C@@H](CCC(N)=O)C(=O)N[C@@H](CCC(N)=O)C(N)=O)[C@@H](C)CC)[C@@H](C)CC)[C@@H](C)O)[C@@H](C)O)C(C)C)C(C)C [Melittin, reference compound]	75 Units (1 mm = 10 Units)	65 Units (1 mm = 10 Units)	100 Units (1 mm = 10 Units)	92%		
KIGTFIKKLSYTS * [Ph 26, synthetic peptide predicted as novel AMP from the P. hilaris transcriptome]	85 Units (1 mm = 10 Units)	25 Units (1 mm = 10 Units)	75 Units (1 mm = 10 Units)		stronger antimicrobial activity than melittin	
KLPIVNVKLVNRIK * [Ph 2, synthetic peptide predicted as novel AMP from the P. hilaris transcriptome]	80 Units (1 mm = 10 Units)	80 Units (1 mm = 10 Units)	90 Units (1 mm = 10 Units)		stronger antimicrobial activity than melittin	stronger antimicrobial activity than melittin
KLQVVPAIHLVWLQK * [Ph 4, synthetic peptide predicted as novel AMP from the P. hilaris transcriptome]	75 Units (1 mm = 10 Units)	30 Units (1 mm = 10 Units)	80 Units (1 mm = 10 Units)			
KLSNAVFKSCRKI * [Ph 24, synthetic peptide predicted as novel AMP from the P. hilaris transcriptome]	49 Units (1 mm = 10 Units)	47 Units (1 mm = 10 Units)	65 Units (1 mm = 10 Units)			
KMFTKCIRYRKM * [Ph 20, synthetic peptide predicted as novel AMP from the P. hilaris transcriptome]	65 Units (1 mm = 10 Units)	68 Units (1 mm = 10 Units)	85 Units (1 mm = 10 Units)			
KRGYQVPRIAFII * [Ph 3, synthetic peptide predicted as novel AMP from the P. hilaris transcriptome]	72 Units (1 mm = 10 Units)	80 Units (1 mm = 10 Units)	85 Units (1 mm = 10 Units)			stronger antimicrobial activity than melittin
KRIFYLYIRGQ * [Ph 22, synthetic peptide predicted as novel AMP from the P. hilaris transcriptome]	85 Units (1 mm = 10 Units)	92 Units (1 mm = 10 Units)	95 Units (1 mm = 10 Units)		stronger antimicrobial activity than melittin	stronger antimicrobial activity than melittin
RAIKWPGNGLLFLKY * [Ph 1, synthetic peptide predicted as novel AMP from the P. hilaris transcriptome]	85 Units (1 mm = 10 Units)	65 Units (1 mm = 10 Units)	86 Units (1 mm = 10 Units)		stronger antimicrobial activity than melittin	
RCLKTCFLSFIRY * [Ph 8, synthetic peptide predicted as novel AMP from the P. hilaris transcriptome]	71 Units (1 mm = 10 Units)	45 Units (1 mm = 10 Units)	83 Units (1 mm = 10 Units)			
RISCVAMRLILK * [Ph 10, synthetic peptide predicted as novel AMP from the P. hilaris transcriptome]	67 Units (1 mm = 10 Units)	48 Units (1 mm = 10 Units)	72 Units (1 mm = 10 Units)			
RKSWRHWKC * [Ph 16, synthetic peptide predicted as novel AMP from the P. hilaris transcriptome]	50 Units (1 mm = 10 Units)	65 Units (1 mm = 10 Units)	87 Units (1 mm = 10 Units)			
RLLLLCYACGKS * [Ph 12, synthetic peptide predicted as novel AMP from the P. hilaris transcriptome]	70 Units (1 mm = 10 Units)	40 Units (1 mm = 10 Units)	75 Units (1 mm = 10 Units)			
RRRCRCCRY * [Ph 14, synthetic peptide predicted as novel AMP from the P. hilaris transcriptome]	65 Units (1 mm = 10 Units)	105 Units (1 mm = 10 Units)	70 Units (1 mm = 10 Units)			stronger antimicrobial activity than melittin
